Legend:
[1] = biological target: Proto-oncogene tyrosine-protein kinase ROS (Homo sapiens, UniProt P08922); test: Inhibition of ROS1 (unknown origin) assessed as remaining activity
[2] = biological target: AP2-associated protein kinase 1 (Homo sapiens) (UniProt Q2M2I8); test: Inhibition of AAK1 (unknown origin) assessed as residual activity at 10 uM relative to control
[3] = biological target: Atypical kinase COQ8A, mitochondrial (Homo sapiens) (UniProt Q8NI60); test: Inhibition of ADCK3 (unknown origin) assessed as residual activity at 10 uM relative to control
[4] = biological target: ALK tyrosine kinase receptor (Homo sapiens) (UniProt Q9UM73); test: Inhibition of ALK (unknown origin) assessed as residual activity at 20 uM relative to control
[5] = biological target: Aurora kinase A (Homo sapiens) (UniProt O14965); test: Inhibition of aurora A kinase (unknown origin) assessed as residual activity at 10 uM relative to control
[6] = biological target: BMP-2-inducible protein kinase (Homo sapiens) (UniProt Q9NSY1); test: Inhibition of BIKE (unknown origin) assessed as residual activity at 10 uM relative to control
[7] = biological target: Tyrosine-protein kinase Blk (Homo sapiens) (UniProt P51451); test: Inhibition of BLK (unknown origin) assessed as residual activity at 10 uM relative to control
[8] = biological target: Serine/threonine-protein kinase B-raf (Homo sapiens) (UniProt P15056); test: Inhibition of BRAF (unknown origin) assessed as residual activity at 10 uM relative to control
[9] = system: Serine/threonine-protein kinase B-raf (Homo sapiens), P15056 [V600E]; test: Inhibition of BRAF V600E mutant (unknown origin) assessed as residual activity at 10 uM relative to control
[10] = biological target: Ephrin type-B receptor 6 (Homo sapiens) (UniProt O15197); test: Inhibition of EPHB6 (unknown origin) assessed as residual activity at 10 uM relative to control
[11] = biological target: Receptor-type tyrosine-protein kinase FLT3 (Homo sapiens) (UniProt P36888); test: Inhibition of FLT3 (unknown origin) assessed as residual activity at 10 uM relative to control
[12] = system: Receptor-type tyrosine-protein kinase FLT3 (Homo sapiens), P36888 [N841I]; test: Inhibition of FLT3 N841I mutant (unknown origin) assessed as residual activity at 10 uM relative to control
[13] = biological target: Tyrosine-protein kinase HCK (Homo sapiens) (UniProt P08631); test: Inhibition of HCK (unknown origin) assessed as residual activity at 10 uM relative to control
[14] = biological target: Tyrosine-protein kinase JAK2 (Homo sapiens) (UniProt O60674); test: Inhibition of JAK2 (unknown origin) assessed as residual activity at 10 uM relative to control
[15] = biological target: Mast/stem cell growth factor receptor Kit (Homo sapiens) (UniProt P10721); test: Inhibition of KIT (unknown origin) assessed as residual activity at 10 uM relative to control
[16] = biological target: Leukocyte tyrosine kinase receptor (Homo sapiens) (UniProt P29376); test: Inhibition of LTK (unknown origin) assessed as residual activity at 10 uM relative to control
[17] = biological target: Hepatocyte growth factor receptor (Homo sapiens) (UniProt P08581); test: Inhibition of c-MET (unknown origin) assessed as residual activity at 20 uM relative to control
[18] = biological target: Phosphatidylinositol 4-phosphate 3-kinase C2 domain-containing subunit beta (Homo sapiens) (UniProt O00750); test: Inhibition of PIK3C2B (unknown origin) assessed as residual activity at 10 uM relative to control
[19] = biological target: Phosphatidylinositol 4,5-bisphosphate 3-kinase catalytic subunit alpha isoform (Homo sapiens) (UniProt P42336); test: Inhibition of PIK3CA (unknown origin) assessed as residual activity at 10 uM relative to control
[20] = system: Phosphatidylinositol 4,5-bisphosphate 3-kinase catalytic subunit alpha isoform (Homo sapiens), P42336 [E542K]; test: Inhibition of PIK3CA E542K mutant (unknown origin) assessed as residual activity at 10 uM relative to control
[21] = biological target: Phosphatidylinositol 4,5-bisphosphate 3-kinase catalytic subunit beta isoform (Homo sapiens) (UniProt P42338); test: Inhibition of PIK3CB (unknown origin) assessed as residual activity at 10 uM relative to control
[22] = biological target: Phosphatidylinositol 4,5-bisphosphate 3-kinase catalytic subunit delta isoform (Homo sapiens) (UniProt O00329); test: Inhibition of PIK3CD (unknown origin) assessed as residual activity at 10 uM relative to control
[23] = biological target: Serine/threonine-protein kinase PLK4 (Homo sapiens) (UniProt O00444); test: Inhibition of PLK4 (unknown origin) assessed as residual activity at 10 uM relative to control
[24] = biological target: Serine/threonine-protein kinase RIO2 (Homo sapiens) (UniProt Q9BVS4); test: Inhibition of RIOK2 (unknown origin) assessed as residual activity at 10 uM relative to control
[25] = biological target: Proto-oncogene tyrosine-protein kinase Src (Homo sapiens) (UniProt P12931); test: Inhibition of SRC (unknown origin) assessed as residual activity at 10 uM relative to control
[26] = biological target: Non-receptor tyrosine-protein kinase TNK1 (Homo sapiens) (UniProt Q13470); test: Inhibition of TNK1 (unknown origin) assessed as residual activity at 10 uM relative to control
[27] = biological target: Tyrosine-protein kinase TXK (Homo sapiens) (UniProt P42681); test: Inhibition of TXK (unknown origin) assessed as residual activity at 10 uM relative to control
[28] = biological target: Non-receptor tyrosine-protein kinase TYK2 (Homo sapiens) (UniProt P29597); test: Inhibition of TYK2 JH1 domain catalytic (unknown origin) assessed as residual activity at 10 uM relative to control
Homo sapiens = species: Homo sapiens; test: Inhibition of ULK (unknown origin) assessed as residual activity at 10 uM relative to control
[29] = biological target: Mitogen-activated protein kinase kinase kinase 20 (Homo sapiens) (UniProt Q9NYL2); test: Inhibition of ZAK (unknown origin) assessed as residual activity at 10 uM relative to control

Chain of Proto-oncogene tyrosine-protein kinase ROS (P08922 whole entry): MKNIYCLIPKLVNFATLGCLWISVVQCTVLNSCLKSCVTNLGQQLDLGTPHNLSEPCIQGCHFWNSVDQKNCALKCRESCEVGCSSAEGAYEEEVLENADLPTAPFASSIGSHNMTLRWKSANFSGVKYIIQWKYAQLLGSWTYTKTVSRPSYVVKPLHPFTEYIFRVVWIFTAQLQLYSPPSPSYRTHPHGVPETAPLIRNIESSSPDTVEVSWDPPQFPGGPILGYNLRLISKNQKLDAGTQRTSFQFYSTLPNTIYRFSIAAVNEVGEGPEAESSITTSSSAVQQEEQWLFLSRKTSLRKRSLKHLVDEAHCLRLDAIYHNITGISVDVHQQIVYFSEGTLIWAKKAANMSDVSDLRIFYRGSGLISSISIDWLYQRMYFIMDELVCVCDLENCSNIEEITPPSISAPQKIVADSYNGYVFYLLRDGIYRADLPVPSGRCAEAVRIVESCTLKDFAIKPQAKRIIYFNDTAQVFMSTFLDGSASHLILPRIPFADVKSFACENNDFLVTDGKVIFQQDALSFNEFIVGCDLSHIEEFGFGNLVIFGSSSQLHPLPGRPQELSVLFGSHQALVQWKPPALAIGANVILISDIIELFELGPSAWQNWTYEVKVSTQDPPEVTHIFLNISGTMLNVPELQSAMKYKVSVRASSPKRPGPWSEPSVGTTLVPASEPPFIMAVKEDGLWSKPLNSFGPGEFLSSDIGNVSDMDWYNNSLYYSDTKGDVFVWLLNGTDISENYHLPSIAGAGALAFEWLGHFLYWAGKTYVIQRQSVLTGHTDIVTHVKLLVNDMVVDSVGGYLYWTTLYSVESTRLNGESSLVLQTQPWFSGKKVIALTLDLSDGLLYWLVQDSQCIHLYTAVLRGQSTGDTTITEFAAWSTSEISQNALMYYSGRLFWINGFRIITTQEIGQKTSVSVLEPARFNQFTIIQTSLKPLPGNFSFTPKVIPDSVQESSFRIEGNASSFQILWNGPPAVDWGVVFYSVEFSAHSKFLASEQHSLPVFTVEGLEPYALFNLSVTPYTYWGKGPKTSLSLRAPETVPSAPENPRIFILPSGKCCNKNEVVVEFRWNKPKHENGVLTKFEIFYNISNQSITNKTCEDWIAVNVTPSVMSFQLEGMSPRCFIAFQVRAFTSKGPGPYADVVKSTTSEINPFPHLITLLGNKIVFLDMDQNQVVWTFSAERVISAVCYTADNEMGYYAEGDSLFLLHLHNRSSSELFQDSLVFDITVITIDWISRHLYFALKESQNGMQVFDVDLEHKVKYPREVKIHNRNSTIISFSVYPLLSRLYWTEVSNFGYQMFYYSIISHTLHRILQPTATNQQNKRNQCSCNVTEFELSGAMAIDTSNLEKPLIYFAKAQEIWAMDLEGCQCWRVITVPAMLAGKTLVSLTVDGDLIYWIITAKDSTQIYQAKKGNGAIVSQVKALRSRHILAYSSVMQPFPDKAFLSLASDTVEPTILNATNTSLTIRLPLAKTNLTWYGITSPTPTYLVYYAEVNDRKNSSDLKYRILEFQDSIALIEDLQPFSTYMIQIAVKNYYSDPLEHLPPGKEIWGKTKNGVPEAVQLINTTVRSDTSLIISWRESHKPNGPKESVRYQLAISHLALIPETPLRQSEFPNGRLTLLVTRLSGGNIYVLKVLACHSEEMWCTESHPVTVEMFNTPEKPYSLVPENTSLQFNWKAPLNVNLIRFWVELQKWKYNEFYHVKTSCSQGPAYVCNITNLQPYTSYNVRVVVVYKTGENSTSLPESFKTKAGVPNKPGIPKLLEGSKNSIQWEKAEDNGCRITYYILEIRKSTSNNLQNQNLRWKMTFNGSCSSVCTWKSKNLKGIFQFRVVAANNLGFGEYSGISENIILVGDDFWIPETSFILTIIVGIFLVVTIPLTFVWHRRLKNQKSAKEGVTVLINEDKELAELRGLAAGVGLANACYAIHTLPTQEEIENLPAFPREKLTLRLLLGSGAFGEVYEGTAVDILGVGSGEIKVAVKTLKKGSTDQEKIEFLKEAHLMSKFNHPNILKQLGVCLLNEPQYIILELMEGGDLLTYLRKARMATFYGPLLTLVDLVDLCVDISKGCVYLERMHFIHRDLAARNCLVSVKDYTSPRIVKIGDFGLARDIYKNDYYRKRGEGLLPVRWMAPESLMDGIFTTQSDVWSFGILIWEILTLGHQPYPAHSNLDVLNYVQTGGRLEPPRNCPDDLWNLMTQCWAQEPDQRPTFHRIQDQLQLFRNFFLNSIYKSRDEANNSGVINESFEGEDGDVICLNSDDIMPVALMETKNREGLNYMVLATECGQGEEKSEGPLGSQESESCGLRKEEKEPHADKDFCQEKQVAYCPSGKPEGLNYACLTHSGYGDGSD
Chain of Tyrosine-protein kinase JAK2 (Homo sapiens) (O60674 whole entry): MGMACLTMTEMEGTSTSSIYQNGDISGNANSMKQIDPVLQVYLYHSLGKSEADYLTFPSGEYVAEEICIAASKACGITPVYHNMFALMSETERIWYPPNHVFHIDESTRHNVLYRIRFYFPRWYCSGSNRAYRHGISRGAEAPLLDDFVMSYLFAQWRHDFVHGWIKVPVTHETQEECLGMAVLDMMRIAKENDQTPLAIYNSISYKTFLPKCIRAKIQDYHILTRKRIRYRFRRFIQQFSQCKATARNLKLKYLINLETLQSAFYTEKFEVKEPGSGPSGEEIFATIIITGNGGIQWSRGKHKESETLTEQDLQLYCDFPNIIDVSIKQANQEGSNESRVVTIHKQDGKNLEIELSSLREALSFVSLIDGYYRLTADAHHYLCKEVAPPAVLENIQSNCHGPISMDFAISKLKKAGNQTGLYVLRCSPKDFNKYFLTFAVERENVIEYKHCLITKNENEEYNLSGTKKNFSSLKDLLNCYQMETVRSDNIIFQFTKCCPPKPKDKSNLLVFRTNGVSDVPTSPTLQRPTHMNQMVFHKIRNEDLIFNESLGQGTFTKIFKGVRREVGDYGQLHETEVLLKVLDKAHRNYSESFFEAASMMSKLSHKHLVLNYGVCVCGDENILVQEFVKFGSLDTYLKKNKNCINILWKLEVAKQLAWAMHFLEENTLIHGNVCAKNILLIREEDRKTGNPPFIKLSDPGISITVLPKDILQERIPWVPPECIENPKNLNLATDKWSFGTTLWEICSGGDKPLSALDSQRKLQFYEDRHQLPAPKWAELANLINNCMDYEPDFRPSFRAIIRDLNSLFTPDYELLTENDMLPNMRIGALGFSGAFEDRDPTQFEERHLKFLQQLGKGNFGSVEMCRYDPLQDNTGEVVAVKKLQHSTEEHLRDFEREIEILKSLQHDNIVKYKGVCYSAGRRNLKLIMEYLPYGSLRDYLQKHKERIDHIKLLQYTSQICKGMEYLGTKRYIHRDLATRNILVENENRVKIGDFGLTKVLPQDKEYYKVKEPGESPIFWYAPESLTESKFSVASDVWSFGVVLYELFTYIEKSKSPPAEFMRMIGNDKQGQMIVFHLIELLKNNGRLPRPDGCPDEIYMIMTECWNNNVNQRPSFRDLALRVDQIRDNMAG
Chain of Aurora kinase A (Homo sapiens) (O14965 whole entry): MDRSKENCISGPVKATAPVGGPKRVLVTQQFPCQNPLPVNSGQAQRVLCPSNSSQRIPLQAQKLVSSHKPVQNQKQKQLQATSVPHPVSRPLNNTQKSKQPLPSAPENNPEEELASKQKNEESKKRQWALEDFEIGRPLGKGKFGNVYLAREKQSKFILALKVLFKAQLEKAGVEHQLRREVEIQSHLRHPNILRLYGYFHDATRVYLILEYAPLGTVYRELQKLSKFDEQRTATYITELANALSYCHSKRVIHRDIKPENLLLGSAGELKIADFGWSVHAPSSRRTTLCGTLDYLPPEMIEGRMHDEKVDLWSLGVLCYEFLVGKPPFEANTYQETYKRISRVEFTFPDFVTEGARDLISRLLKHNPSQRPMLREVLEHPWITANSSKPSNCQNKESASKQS
Chain of Ephrin type-B receptor 6 (Homo sapiens) (O15197 whole entry): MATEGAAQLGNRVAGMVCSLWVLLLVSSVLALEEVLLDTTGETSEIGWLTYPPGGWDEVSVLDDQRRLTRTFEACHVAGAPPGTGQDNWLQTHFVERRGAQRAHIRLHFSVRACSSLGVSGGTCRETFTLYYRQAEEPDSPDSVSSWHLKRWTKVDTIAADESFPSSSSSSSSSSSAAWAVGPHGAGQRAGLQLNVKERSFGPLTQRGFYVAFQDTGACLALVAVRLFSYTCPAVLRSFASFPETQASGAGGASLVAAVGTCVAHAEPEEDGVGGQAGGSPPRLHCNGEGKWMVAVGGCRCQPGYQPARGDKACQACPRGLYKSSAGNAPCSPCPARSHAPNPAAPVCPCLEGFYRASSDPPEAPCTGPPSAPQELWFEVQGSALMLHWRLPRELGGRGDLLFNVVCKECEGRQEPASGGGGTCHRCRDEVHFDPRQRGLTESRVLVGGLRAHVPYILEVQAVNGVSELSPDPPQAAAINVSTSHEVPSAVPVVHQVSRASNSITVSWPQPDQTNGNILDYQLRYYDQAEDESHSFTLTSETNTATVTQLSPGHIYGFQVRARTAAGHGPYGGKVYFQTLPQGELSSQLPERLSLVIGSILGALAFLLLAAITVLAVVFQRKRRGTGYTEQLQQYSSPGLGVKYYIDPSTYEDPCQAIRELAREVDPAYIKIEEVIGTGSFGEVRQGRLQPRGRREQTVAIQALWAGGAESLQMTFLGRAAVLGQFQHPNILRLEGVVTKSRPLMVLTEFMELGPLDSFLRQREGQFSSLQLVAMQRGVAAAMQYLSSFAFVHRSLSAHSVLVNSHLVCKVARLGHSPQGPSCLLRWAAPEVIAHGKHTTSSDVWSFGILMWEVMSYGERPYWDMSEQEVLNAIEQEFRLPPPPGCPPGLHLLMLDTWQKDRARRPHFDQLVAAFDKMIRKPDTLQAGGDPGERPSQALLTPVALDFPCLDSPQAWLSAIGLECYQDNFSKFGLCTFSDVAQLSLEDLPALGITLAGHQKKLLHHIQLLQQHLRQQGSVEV

`COc1cc(C)cc(-c2c(-c3cc(NCCCCO)nc(-c4cccnc4)n3)cnn2C)c1` was tested, and the IC50 [1] was 138 nM.
In the case of `COc1cc(C)cc(-c2c(-c3cc(N4CCOCC4)nc(-c4cccnc4)n3)cnn2C)c1`, the IC50 [1] is reported as 104 nM.
Work on `COc1cc(C)cc(-c2nn(C)cc2-c2cc(N3CC(O)C3)nc(-c3cccnc3)n2)c1` yielded an IC50 [1] of 108 nM.
`Cc1cc(O)cc(-c2nn(C)cc2-c2cc(N3CC(O)C3)nc(-c3cccnc3)n2)c1` was tested, and the IC50 [1] was 86.5 nM.
`Cc1cc(O)cc(-c2nn(C)cc2-c2cc(NCCCCO)nc(-c3cccnc3)n2)c1` showed an IC50 [1] of 133 nM.
Work on `Cc1cc(O)cc(-c2c(-c3cc(NC[C@H](C)O)nc(-c4cccnc4)n3)cnn2C)c1` yielded an IC50 [1] of 139 nM.
With `COc1cc(C)cc(-c2nn(C)cc2-c2cc(N3CCOCC3)nc(-c3cccnc3)n2)c1` the IC50 [1] was 59.1 nM.
`Cc1cc(O)cc(-c2c(-c3cc(N4CC(O)C4)nc(-c4cccnc4)n3)cnn2C)c1` gave an IC50 [1] of 56.6 nM.
Compound `COc1cc(C)cc(-c2nn(C)cc2-c2cc(NC[C@H](C)O)nc(-c3cccnc3)n2)c1` has an IC50 [1] of 241 nM.
Compound `Cc1cc(O)cc(-c2c(-c3cc(NCCCCO)nc(-c4cccnc4)n3)cnn2C)c1` has an IC50 [1] of 25.4 nM.
`COc1cc(C)cc(-c2c(-c3cc(NC[C@H](C)O)nc(-c4cccnc4)n3)cnn2C)c1` was tested, and the IC50 [1] was 283 nM.
`COc1cc(C)cc(-c2c(-c3cc(N4CC(O)C4)nc(-c4cccnc4)n3)cnn2C)c1` was tested, and the IC50 [1] was 74.2 nM.
`COc1cc(C)cc(-c2nn(C)cc2-c2cc(NCCCCO)nc(-c3cccnc3)n2)c1` showed an IC50 [1] of 63.8 nM.
Work on `Cc1cc(O)cc(-c2c(-c3cc(N4CCOCC4)nc(-c4cccnc4)n3)cnn2C)c1` yielded an IC50 [1] of 91.5 nM.
With `Cc1cc(O)cc(-c2nn(C)cc2-c2cc(N3CCOCC3)nc(-c3cccnc3)n2)c1` the IC50 [1] was 13.6 nM, the Activity [2] was 18% and the Activity [3] was 15%. The Activity [4] was 31%, the Activity [5] was 31% and the Activity [6] was 11%. For the same compound, the Activity [7] was 20%, the Activity [8] was 30% and the Activity [9] was 18%. It also gave an Activity [10] of 4.2%, an Activity [11] of 3% and an Activity [12] of 3.3%. The Activity [13] was 28%, the Activity [14] was 3% and the Activity [15] was 20%. For the same compound, the Activity [16] was 17%, the Activity [17] was 51% and the Activity [18] was 4%. For the same compound, the Activity [19] was 13%, the Activity [20] was 14% and the Activity [21] was 7.2%. It also gave an Activity [22] of 4.4%, an Activity [23] of 6.8% and an Activity [24] of 10%. The Activity [25] was 25%, the Activity [26] was 9.2% and the Activity [27] was 9.6%. For the same compound, the Activity [28] was 2.6%, the Activity (Homo sapiens) was 71% and the Activity [29] was 92%.
Work on `Cc1cc(O)cc(-c2nn(C)cc2-c2cc(NC[C@H](C)O)nc(-c3cccnc3)n2)c1` yielded an IC50 [1] of 105 nM.
